Data on three molecules can be found in PubChem BioAssay (NCI).

The structures appear in SMILES notation.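 A five-concentration, 48-hour dose response in 96-well plates underlies each endpoint, interpolated linearly between surrounding concentrations. At the GI50, growth is halved. Definition used: TGI = concentration required for complete inhibition of growth.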

Test in all cases: NCI tumour cell line growth inhibition, 48 h
Test [1] relates to A498 renal.
In test [2] the test system is HCT-116 colon.
Test [3] concerns HL-60(TB) leukemia.
For test [4], the system named is HOP-92 NSCLC.
Test [5] deals with LOX IMVI melanoma.
Test [6] concerns NCI-H226 lung.
Test [7] relates to NCI-H522 lung.
The test system of test [8] is NCI/ADR-RES ovarian.
In test [9] the test system is RPMI-8226 leukemia.
Test [10] concerns UACC-62 melanoma.

Take `Cc1nc2ccc(-n3ncc(C(=O)c4cc5ccccc5[nH]4)c3N)cc2[nH]1`: the GI50 was 0.496 µM in [1]; 4.51 µM in test [2]; 11.9 µM in test [3]; 21.9 µM in test [4]; 2.57 µM in test [5]; 10.5 µM in test [6]. In addition, the GI50 in test [7] is 10.1 µM; in [8] it was 11.9 µM; in test [9], 8.1 µM; in test [10] it was 4.24 µM. The TGI was 54.3 µM in test [1]; greater than 100 µM in test [2]; 45.9 µM in test [3]; 98.9 µM in test [4]; 15.2 µM in [5]; 49.9 µM in test [6]. The TGI in test [7] stood at 33.3 µM; in [8] it was 80.2 µM; in [9], 54.7 µM; in test [10], 24.9 µM.

Consider `O=C1/C(=C/c2ccc(Cl)cc2)CN(Cc2cn(CCCNc3ccnc4cc(Cl)ccc34)nn2)C/C1=C\c1ccc(Cl)cc1`, for which the GI50 in test [1] was 1.23 µM; in test [2], 0.305 µM; in [3], 0.809 µM; in test [4] it was 1.46 µM; in [5], 0.249 µM; in test [6], 1.92 µM. For the same molecule, the GI50 in test [7] was 1.61 µM; in [8], 1.65 µM; in [9], 0.285 µM; in test [10], 1.77 µM. For the same molecule, the TGI in [1] is 2.53 µM; in test [2], 0.833 µM; in test [3], 3.33 µM; in test [4], 3.18 µM; in [5], 0.719 µM; in test [6] it was 4.39 µM. The TGI in test [7] amounted to 3.17 µM; in test [8], 6.51 µM; in test [9], 0.878 µM; in test [10], 3.35 µM.

For the molecule `c1cc[n+](Cc2c3ccccc3cc3c2ccc2ccccc23)cc1`, the GI50 in test [1] is 14.4 µM; in test [2], 4.77 µM; in test [3], 3.15 µM; in test [4], 1.56 µM; in test [5] it was 3.72 µM; in test [6], 2.92 µM. Moreover, the GI50 in test [7] is 1.68 µM; in test [8], greater than 100 µM; in test [9], 2.31 µM; in [10], 1.92 µM. The TGI in test [1] was 40.9 µM; in test [2], 17.1 µM; in test [3] it was 12.5 µM; in test [4], 6.97 µM; in test [5], 15.8 µM; in test [6], 24.8 µM. Further, the TGI in test [7] was 5.31 µM; in test [8], greater than 100 µM; in [9] it was 8.87 µM; in test [10], 3.93 µM.
